Experimental data as given in publication PMC6470953, “Symmetrical Modification of Minimized Dermaseptins to Extend the Spectrum of Antimicrobials with Endotoxin Neutralization Potency” (International Journal of Molecular Sciences, 2019).
Where no end group is shown, it is not given here.

Legend:
[1] = test system: E. coli ATCC 25922; assay: FACScan membrane integrity analysis (propidium iodide); assay type: cell-based; conditions: E. coli ATCC 25922, 10 μg/mL PI, 4 °C, 30 min, flow cytometry
Procedure: The membrane integrity measurements were performed with a FACScan instrument (Bectone-Dickinson, San Jose, CA, USA) by using a modified method as described previously. […] As a control, bacteria were exposed to PBS without the peptide. The gate (P1) was defined based on the FSC and SSC properties of E. coli. The FSC threshold was appropriately raised to include the large cell events in the sample and excluded the debris population. Data acquisition was performed using […] Software (Becton Dickinson, San Jose, CA, USA) with a stopping gate of 10,000 total events. Observations were repeated three times at a laser excitation wavelength of 488 nm. Based on the ability of flow cytometers to provide accurate quantification of cell numbers, the counts of PI-positive cells were measured for each peptide.

[2] = test system: interleukin-1β(IL-1β); assay: LPS-induced IL-1β gene expression (qRT-PCR) in RAW264.7; assay type: cell-based, murine; conditions: RAW264.7, 100 ng/mL LPS, peptide 10 μg/mL, n = 3
Procedure: (§1) The RAW264.7 cell culture was prepared using the same method as the cytotoxicity assay. The cells were seeded in 12 wells plates at a given density (5 × 10^5 cells per well); after overnight culture, 100 ng·mL^−1 LPS from E. coli 0111:B4 was added to stimulate the generation of cytokines in the presence or absence of the peptides at concentrations of 10 μg·mL^−1. The mRNA levels of IL-6 and IL-1β were determined by quantitative real-time PCR(qRT-PCR) as previously described. The total RNA was isolated from the RAW264.7 cells using TRIzol according to the manufacturer’s instructions. Total RNA (1 µg) was reverse transcribed by the M-MLV Reverse Transcriptase (Thermo scientific, Waltham, MA, USA). The reactions were incubated in chronological arrangement with the following parameters: at 25 °C for 20 min, at 42 °C for 60 min, and at 70 °C for 10 min. The obtained cDNA samples were determined by qRT-PCR with SYBR green I fluorescence dye (Takara Bio Inc., Kusatsu, Japan). Relative quantifications of the mRNA expression of the target genes were calculated through the comparative threshold cycle number for each sample (2^−ΔΔCT). Gene expression was normalized to the corresponding β-actin level. The primers for qRT-PCR in this study are shown below: IL-6-F: […]; IL-6-R: […]; IL-1β-F: […]; and IL-1β-R: […].

[3] = LPS binding, BODIPY-TR cadaverine displacement assay; design: species or system E. coli; conditions: LPS 100 ng/mL, peptide 1.25–40 μg/mL, 1 h, 37 °C, Tris pH 7.4
Procedure: BODIPY-TR-cadaverine fluorescent dye (BC, Sigma, USA) was used to determine the LPS neutralizing activity of the peptides. A total of 100 ng/mL LPS from E. coli O111:B4 was incubated with 5 μg/mL BC in Tris buffer (50 mM, pH 7.4) for 4 h at room temperature. The peptides were serially diluted to different concentrations (1.25–40 μg/mL) in a 96-well plate and incubated with an equal volume of the LPS-probe mixture for 1 h at 37 °C. The fluorescence was recorded (excitation λ = 580 nm, emission λ = 620 nm) with a spectrofluorophotometer (the Infinite 200 pro, Tecan, China). The values were converted to %ΔF (AU) using the following equation:%ΔF (AU) = (Fobs − F0) / (F100 − F0) × 100 where F0 is the initial fluorescence of BC with LPS; F100 is the BC fluorescence with LPS cells upon the addition of 10 μg∙mL^−1 polymyxin B (the positive control); and Fobs is the observed fluorescence at a given peptide concentration.

[4] = test system: Gram-negative and Gram-positive bacteria; assay: Geometric mean of MIC values over the bacteria tested; assay type: cell-based; conditions: MIC >128 μM counted as 256 μM
Procedure: (§2) MIC measurements were performed in 96-well plates. The peptides were dissolved in 0.2% bovine serum albumin and 0.01% acetic acid, and an appropriate broth was subjected to a series of two-fold dilutions. The final concentration of microbial suspensions was from 2 × 10^5 to 7 × 10^5 colony forming units (CFU)∙mL^−1. Key parameters were volume (50 μL bacterial suspension + 50 μL peptide solution), incubating time (18–24 h), and temperature (37 °C). Each test was performed in three replicates on at least two independent occasions. The Mueller Hilton broth (MHB) (AoBoX, Shanghai, China) without or with microbial cells was regarded as the negative control or positive control, respectively. MICs were recorded at the lowest peptide concentration without visible turbidity and spectrophotometrically by measuring the optical density (OD) at 492 nm (Tecan, Salzburg, Austria).

[5] = test system: interleukin-6(IL-6); assay: LPS-induced IL-6 gene expression (qRT-PCR) in RAW264.7; assay type: cell-based, murine; conditions: RAW264.7, 100 ng/mL LPS, peptide 10 μg/mL, n = 3
Procedure: as §1

[6] = test system: S. aureus ATCC 29213; assay: MIC assay, S. aureus ATCC 29213; assay type: cell-based; conditions: two-fold dilution in 96-well plates, MHB, 2-7 × 10^5 CFU/mL, 18–24 h, 37 °C
Procedure: as §2

[7] = test system: murine macrophage cell line (RAW264.7); assay: MTT cytotoxicity assay, RAW264.7; assay type: cell-based; conditions: RAW264.7, peptide 64 μM, 18–24 h, 37 °C, OD 570 nm, n = 3
Procedure: (§3) The Roswell Park Memorial Institute-1640 (RPMI-1640) (Invitrogen, Carlsbad, CA, USA) and Dulbecco’s modified Eagle’s medium-high glucose (DMEM) (Gibco, China) were supplemented with 100 μg∙mL^−1 streptomycin sulfate, 100 U∙mL^−1 penicillin, and 10% (v/v) fetal bovine serum (Hyclone, Logan, UT, USA). These were used to culture the RAW264.7 and HEK293T cells, respectively. The peptides were added to cell cultures (1.0–2.0 × 10^4 cells/well) at different final concentrations (1–64 µM) in 96-well plates for 18–24 h at 37 °C in 5% CO2, and 3-(4,5-dimethylthiazol-2-yl)-2,5-diphenyltetrazolium bromide (MTT) (50 µL, 0.5 mg∙mL^−1) was injected and incubated with cell cultures for 4 h at 37 °C. Finally, the centrifuged cells without the supernatants were mixed with 150 µL of dimethyl sulfoxide to dissolve the formazan crystals that formed. The optical density (OD) was recorded by a microplate reader (Tecan, Salzburg, Austria) at 570 nm.

[8] = test system: human embryonic kidney cells (HEK293T); assay: MTT cytotoxicity assay, HEK293T; assay type: cell-based; conditions: peptide 64 μM, 18–24 h, 37 °C, OD 570 nm, n = 3
Procedure: as §3

[9] = test system: B. subtilis CMCC 63501; assay: MIC assay, B. subtilis CMCC 63501; assay type: cell-based; conditions: two-fold dilution in 96-well plates, MHB, 2-7 × 10^5 CFU/mL, 18–24 h, 37 °C
Procedure: as §2

[10] = test system: human red blood cells (hRBCs); assay: Hemolytic activity assay; assay type: cell-based; conditions: lowest peptide concentration that induces 5% hemolysis; hRBCs in PBS pH 7.4, 1 h, 37 °C, OD570
Procedure: Hemolytic activity measurements were performed to evaluate the effect of peptides on hemoglobin release levels by erythrocyte lysis. The experimental protocol was reviewed and approved by the ethics committee of the Northeast Agricultural University Hospital, and the experimental method was carried out in accordance with the approved guidelines and regulations. A total of 1 mL of fresh hRBCs was collected and diluted 10-fold with PBS (pH 7.4). A quantity of 50 μL of the hRBCs solution was incubated with 50 μL of serially diluted peptides dissolved in PBS for 1 h at 37 °C. hRBC suspension treated with 0.1% Triton X-100 was employed as a positive control and an untreated hRBC suspension was used as a negative control. A total of 50 μL of the supernatant was collected from the mixture after centrifugation (1000g, 5 min, 4 °C) and transferred to a new 96-well microplate. The percent hemolysis was calculated using the following equation: Hemolysis (%) = [(OD570 of the treated sample — OD570 of the negative control)/(OD570 of the positive control — OD570 of the negative control)] × 100%.

[11] = test system: S. typhimurium ATCC 14028; assay: MIC assay, S. typhimurium ATCC 14028; assay type: cell-based; conditions: two-fold dilution in 96-well plates, MHB, 2-7 × 10^5 CFU/mL, 18–24 h, 37 °C
Procedure: as §2

[12] = test system: S. pullorum C79-13; assay: MIC assay, S. pullorum C79-13; assay type: cell-based; conditions: two-fold dilution in 96-well plates, MHB, 2-7 × 10^5 CFU/mL, 18–24 h, 37 °C
Procedure: as §2

[13] = test system: E. coli ATCC25922; assay: MIC assay, E. coli ATCC25922; assay type: cell-based; conditions: two-fold dilution in 96-well plates, MHB, 2-7 × 10^5 CFU/mL, 18–24 h, 37 °C, three replicates on at least two occasions
Procedure: as §2

[14] = test system: S. faecalis ATCC 29212; assay: MIC assay, S. faecalis ATCC 29212; assay type: cell-based; conditions: two-fold dilution in 96-well plates, MHB, 2-7 × 10^5 CFU/mL, 18–24 h, 37 °C
Procedure: as §2

[15] = test system: S. epidermidis ATCC 12228; assay: MIC assay, S. epidermidis ATCC 12228; assay type: cell-based; conditions: two-fold dilution in 96-well plates, MHB, 2-7 × 10^5 CFU/mL, 18–24 h, 37 °C
Procedure: as §2

[16] = test system: P. aeruginosa ATCC 27853; assay: MIC assay, P. aeruginosa ATCC 27853; assay type: cell-based; conditions: two-fold dilution in 96-well plates, MHB, 2-7 × 10^5 CFU/mL, 18–24 h, 37 °C
Procedure: as §2

[17] = test system: E. coli UB1005; assay: MIC assay, E. coli UB1005; assay type: cell-based; conditions: two-fold dilution in 96-well plates, MHB, 2-7 × 10^5 CFU/mL, 18–24 h, 37 °C
Procedure: as §2

Molecule	percentage of PI-positive cells ([1]; 1/2 × MIC) [%]	percentage of PI-positive cells ([1]; 1 × MIC) [%]	gene expression of IL-1β in LPS-treated cells [2]	binding to LPS, %ΔF (AU) of BODIPY-TR cadaverine [3]	GM (geometric mean of MIC values) [4] [µM]	gene expression of IL-6 in LPS-treated cells [5]	MIC [6] [µM]	cell survival rate [7] [%]	cell survival rate [8] [%]	MIC [9] [µM]	MHC5 (minimum hemolysis concentration 5%) [10] [µM]	MIC [11] [µM]	MIC [12] [µM]	MIC [13] [µM]	MIC [14] [µM]	MIC [15] [µM]	MIC [16] [µM]	MIC [17] [µM]
CC[C@H](C)[C@H](NC(=O)CN)C(=O)NCC(=O)N[C@@H](C)C(=O)N[C@H](C(=O)N[C@@H](CC(C)C)C(=O)N[C@@H](CCCCN)C(=O)N[C@H](C(=O)N[C@@H](CC(C)C)C(=O)N[C@H](C(=O)N[C@H](C(=O)NCC(=O)N[C@@H](CC(C)C)C(=O)N1CCC[C@H]1C(=O)N[C@@H](C)C(=O)N[C@@H](CC(C)C)C(=O)N[C@H](C(=O)N[C@@H](CO)C(=O)N[C@@H](Cc1c[nH]c2ccccc12)C(=O)N[C@H](C(=O)N[C@@H](CCCCN)C(=O)N[C@@H](CCCNC(=N)N)C(=O)N[C@@H](CCCCN)C(=O)N[C@@H](CCCNC(=N)N)C(=O)N[C@@H](CCC(N)=O)C(=O)N[C@@H](CCC(N)=O)C(N)=O)[C@@H](C)CC)[C@@H](C)CC)[C@@H](C)O)[C@@H](C)O)C(C)C)C(C)C [Melittin]	50.5	77.5	markedly decreased	concentration-dependent increase	1.3	markedly decreased												
WFKAAAKAAAKFW-NH2 [WF]							8	92	91	8	256	32	8	4	32	16	16	4
WWKAAAKAAAKWW-NH2 [WW]							4	63	43	4	256	8	2	2	4	4	8	4
WIKAAAKAAAKIW-NH2 [WI]							32	100	96	8	256	32	8	8	32	32	32	8
WVKAAAKAAAKVW-NH2 [WV]							>128	93	93	>128	>256	>128	64	32	64	>128	>128	>128
